Article PMC10876507, “Chelator impact: investigating the pharmacokinetic behavior of copper-64 labeled PD-L1 radioligands” (EJNMMI Radiopharmacy and Chemistry, 2024)
Values joined by “and” are separate entries in the source; they are usually repeats but may differ in a detail not shown here. Identical values can stand only once.

Assays:
PD-L1 [1] = molecular target: T1, PD-L1 (Homo sapiens, UniProt Q9NZQ7); experiment: Real-time radioligand binding (LigandTracer) on PC3 PD-L1 overexpressing cells, without BSA; set-up: expressed in transfected cells; host or cells: PC3 PD-L1 overexpressing cells
Method: For the saturation binding experiments, cells were detached with 0.05% Trypsin–EDTA (Gibco, USA), and counted (CASY1 cell counter, Schaerfe System, Reutlingen, Germany). Cells were then diluted in medium to ~ 160,000 cells/mL and seeded in 48 well plates (Falcon Multiwell #353078, ThermoFisher, Karlsruhe, Germany) for at least 2 days prior to saturation binding experiments. For real-time radioligand binding, approximately 400,000 cells/mL were seeded into one side of petri dishes (3 mL, Nunclon, # 150350, ThermoFisher Germany) ~ 24 h before the experiments.
To investigate binding kinetics, including the association rate constant (ka) and dissociation rate constant (kd), as well as the dissociation constant (KD), a real-time assay system (LigandTracer Yellow or LigandTracer White, Ridgeview Instruments AB, Uppsala, Sweden) was utilized. The petri dish contained attached cells in medium (3 mL) on one side, while radioactivity was detected on the opposing side. The petri dish is set upon an inclined base, allowing continuous measurement of alternating portions of the dish for bound radioligand (cells) compared to the background signal (no cells). Binding experiments were carried out at room temperature using CO2-independent medium (Gibco #18045088, ThermoFisher Germany).
The association phase consisted of incubation with two concentrations (30 and 90 nM, each for 90 min) of our ^64Cu-labeled PD-L1-radioligands, binding to PC3 PD-L1 overexpressing cells. Following this, the incubation medium was replaced with fresh medium, and the dissociation phase was monitored for a minimum of 2 h. […] Data were recorded as decay-corrected counts per second (CPS). Subsequently, binding data were analyzed using TraceDrawer software (version 1.9.2, Ridgeview Instruments AB, Uppsala, Sweden). Traces were imported, potential spikes (instances of sudden CPS increases exceeding 100% of the previous data point) were eliminated, and each trace was normalized to its own baseline (set as 0%) and its maximum value (set as 100%).

[2] = n-octanol/PBS pH 7.4, shake flask
Method: The n-octanol/water distribution coefficients for each radioligand were determined using the shake-flask method. Each experiment was conducted in triplicate. To initiate the experiment, 30 µL of the labeling mixture was combined with 570 µL of PBS (pH 7.4) and 600 µL of n-octanol in a 1.5 mL Eppendorf-Tube. The resulting mixture was shaken at room temperature at 1500 rpm for 5 min before undergoing centrifugation. An aliquot was extracted from each phase, and radioactivity was measured on a γ-counter (ISOMED 2160). Subsequently, mean values were calculated and adjusted for background activity. The log D7.4 value was determined utilizing the equation: logD7.4=logAn-octanol/APBS

[3] = Proteolytic stability in human serum at 37 °C, radio-HPLC; assay type: in vitro ADME; conditions: 48 h
Method: For proteolytic stability studies, a solution of the radiolabeled compound was diluted with human serum in a ratio of 1:10. This mixture then underwent incubation at 37 °C while being shaken at 300 rpm. At each designated timepoint (1, 24 and 48 h), an aliquot was withdrawn and added to a detergent solution (water with 20% v/v EtOH, 5% v/v 5 mM aqueous EDTA, 0.5% v/v Triton X-100, 0.1% m/v saponin, 0.05% v/v 0.5 mM aqueous o-phenanthroline) in a ratio of 1:2 for precipitation of serum proteins. The mixture was cooled on ice for 5 min, followed by centrifugation at 12,000 g for 5 min. A minor portion of the resulting supernatant was subjected to analytical radio-HPLC (reversed-phase, Phenomenex Jupiter 300 C-18, 5 µm, 4.6 × 250 mm) with 10–95% acetonitrile (0.1% TFA) in water (0.1% TFA) in a linear gradient over 15 min, 1 mL/min, γ-detection). The assessment and graphical representations were performed using OriginPro® 9.0.

[4] = tested on: PC3 PD-L1 overexpressing and PD-L1-mock tumors; experiment: PET imaging in NMRI-nude mice bearing PC3 PD-L1 and PC3 mock tumors; assay type: in vivo; conditions: for excretion pattern / clearance route in PET: PET 0–25 h p.i.; for SUVmax PC3 PD-L1 tumor / SUVmax PC3 mock tumor / SUVmax kidney / SUVmax liver: tracer only, i.v.
Method: Male athymic NMRI-nude mice (Rj:NMRI-Foxn1nu, Janvier Labs, Le Genest-Saint-Isle, France) aged between 8 to 16 weeks were employed for the study. General anesthesia was induced [~ 10% desflurane (Baxter, Deerfield, IL, USA) in 30 vol% oxygen + air] under controlled warming (37°C), and mice were subcutaneously injected with 3–5 × 10^6 PC3 PD-L1 and PC3 mock cells (in 50 µL PBS + 50 µL Matrigel, Corning, Glendale, CA, USA) into the right and left thigh, respectively. The growth of tumors was systematically monitored three times per week through caliper measurements, and animals with tumor sizes above 7 mm were included in the subsequent experiments.
PET and X-ray computed tomography (CT) scans were conducted under general anesthesia using a small animal nanoScan PET/CT scanner (Mediso, Budapest, Hungary), capable of imaging four animals simultaneously. CT images served attenuation correction and anatomical referencing. A total of three individual scans were conducted, corresponding to the timeframes of 0–2 h (dynamic reconstruction), 4–5 h, and 24–25 h (one frame reconstruction) after injection.
The PD-L1 radiotracer candidates (in 300 µL sterile 0.9% NaCl/HEPES buffer, pH 6–7, containing between 7 and 12 MBq, with molar activities exceeding 12 GBq/µmol) were intravenously delivered over 30 s through a catheter in the lateral tail vein. The PET acquisition was initiated simultaneously with the administration.
The acquired three-dimensional list mode data were sorted and binned within a 400–600 keV energy window, forming […] (15 × 10 s, 5 × 30 s, 5 × 60 s, 4 × 300 s, 3 × 600 s, 3 × 1200 s). Reconstruction of the time frames was accomplished using the Tera-TomoTM 3D algorithm, utilizing a voxel size of 0.4 mm and applying corrections for decay, scatter, and attenuation. The images were subjected to post-processing and analysis using Rover software (ABX GmbH, Radeberg, Germany), and were depicted as maximum intensity projections (MIPs) at the specified timepoints and scaling.
Three-dimensional volumes of interest were defined using fixed thresholding at 35–40% of the maximal measured intensity. Standardized uptake values (SUV = [MBq detected activity/mL tissue] / [MBq injected activity/g body weight], in mL/g) were then calculated within the selected volumes of interest, encompassing PD-L1 and mock tumors, as well as metabolizing organs.

PD-L1 [5] = molecular target: T1, PD-L1; experiment: Saturation binding assay on human PD-L1 transduced PC3 cells (assay buffer with 2.5% BSA); set-up: expressed in transfected cells; host or cells: PC3 cells transduced with human PD-L1 (PC3-PD-L1)
[6] = tracer +500 nM respective unlabeled compound, 1-2 hour p.i., mice
[7] = tracer +500 nM respective unlabeled compound, 4-5 hour p.i., mice
[8] = tracer +500 nM respective unlabeled compound, 24-25 hour p.i., mice
[9] = 1-2 hour p.i., mice, listed as [64Cu]Cu-15
[10] = 1-2 hour p.i., mice, listed as [64Cu]Cu-17
[11] = 4-5 hour p.i., mice, listed as [64Cu]Cu-17
[12] = 24-25 hour p.i., mice, listed as [64Cu]Cu-17

T1 sequence (Q9NZQ7 19-290): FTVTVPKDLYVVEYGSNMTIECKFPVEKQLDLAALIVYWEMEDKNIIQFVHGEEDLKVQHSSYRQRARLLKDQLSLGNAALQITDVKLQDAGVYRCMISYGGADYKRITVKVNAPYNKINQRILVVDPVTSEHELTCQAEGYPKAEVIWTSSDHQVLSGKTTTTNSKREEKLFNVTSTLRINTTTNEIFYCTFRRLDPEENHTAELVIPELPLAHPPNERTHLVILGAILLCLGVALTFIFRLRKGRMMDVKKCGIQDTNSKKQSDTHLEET

Cc1c(COc2cc(OCc3cncc(S(C)(=O)=O)c3)c(CN[C@@H](CS(=O)(=O)O)C(=O)NCCS(=O)(=O)O)cc2Br)cccc1-c1cccc(OCc2cn(CCCN3CCN(C(=O)[C@H](CS(=O)(=O)O)NC(=O)CN4CCCN5CCN(CCCN(CC(=O)[O-])CC5)CC4)CC3)nn2)c1C.[64Cu+2] [[^64Cu]Cu-15]
Kd (PD-L1 [1]; PC3 PD-L1 overexpressing cells, room temperature, without BSA): ~20 nM and 19.1 nM | ka (PD-L1 [1]; association rate constant, real-time binding): (5.10 ± 0.55) × 10^3 (M × s)^–1 | kd (PD-L1 [1]; dissociation rate constant, real-time binding): (0.96 ± 0.02) × 10^–4 s^–1 | Log D7.4 [2]: –2.11 ± 0.02 | intact radioligand after incubation in human serum [3]: 88% | PD-L1 tumor uptake after preinjection of 500 nmol of cold ligand ([4]; blocking, mice): not significantly reduced | excretion pattern / clearance route in PET ([4]; mice): hepatobiliary excretion pattern | SUVmax PC3 PD-L1 tumor, blocking ([4]; tracer +500 nM respective unlabeled compound (injected 5 min prior), 1-2 hour p.i., mice): 1.58 | SUVmax PC3 mock tumor, blocking [4, 6]: 1.17 | SUVmax kidney, blocking [4, 6]: 7.41 | SUVmax liver, blocking [4, 6]: 1.49 | SUVmax PC3 PD-L1 tumor, blocking [4, 7]: 0.77 | SUVmax PC3 mock tumor, blocking [4, 7]: 0.57 | SUVmax kidney, blocking [4, 7]: 0.78 | SUVmax liver, blocking [4, 7]: 1.82 | SUVmax PC3 PD-L1 tumor, blocking [4, 8]: 0.91 | SUVmax PC3 mock tumor, blocking [4, 8]: 0.78 | SUVmax kidney, blocking [4, 8]: 0.51 | SUVmax liver, blocking [4, 8]: 0.78 | SUVmax PC3 PD-L1 tumor ([4]; 1-2 hour p.i., mice): 1.03 ± 0.23 | SUVmax PC3 mock tumor ([4]; 1-2 hour p.i., mice): 0.61 | SUVmax kidney ([4]; 1-2 hour p.i., mice): 3.26 ± 0.98 | SUVmax liver ([4]; 1-2 hour p.i., mice): 3.80 ± 0.33 | SUVmax PC3 PD-L1 tumor [4, 9]: 1.03 | SUVmax kidney [4, 9]: 3.26 | SUVmax liver [4, 9]: 3.80 | SUVmax PC3 PD-L1 tumor ([4]; 4-5 hour p.i., mice): 0.66 ± 0.16 | SUVmax PC3 mock tumor ([4]; 4-5 hour p.i., mice): 0.44 | SUVmax kidney ([4]; 4-5 hour p.i., mice): 0.68 | SUVmax liver ([4]; 4-5 hour p.i., mice): 1.41 | SUVmax PC3 PD-L1 tumor ([4]; 4-5 hour p.i., mice, listed as [64Cu]Cu-15): 0.66 | SUVmax PC3 PD-L1 tumor ([4]; 24-25 hour p.i., mice): 0.90 ± 0.09 | SUVmax PC3 mock tumor ([4]; 24-25 hour p.i., mice): 0.76 | SUVmax kidney ([4]; 24-25 hour p.i., mice): 0.48 | SUVmax liver ([4]; 24-25 hour p.i., mice): 1.01 | SUVmax PC3 PD-L1 tumor ([4]; 24-25 hour p.i., mice, listed as [64Cu]Cu-15): 0.90 | Kd (PD-L1 [5]; human PD-L1 transduced PC3 cells, on ice 90 min, PBS + 2.5% w/v BSA): 185 nM | Bmax (PD-L1 [5]; saturation binding, pmol/mg protein, PC3 PD-L1 cells): 2.58 ± 0.35 pmol/mg

Cc1c(COc2cc(OCc3cncc(S(C)(=O)=O)c3)c(CN[C@@H](CS(=O)(=O)O)C(=O)NCCS(=O)(=O)O)cc2Br)cccc1-c1cccc(OCc2cn(CCCN3CCN(C(=O)[C@H](CS(=O)(=O)O)NC(=O)CCCC(=O)NC45CNCCNCC(NC(=O)CCCC(=O)N[C@@H](CS(=O)(=O)O)C(=O)N6CCN(CCCn7cc(COc8cccc(-c9cccc(COc%10cc(OCc%11cncc(S(C)(=O)=O)c%11)c(CN[C@@H](CS(=O)(=O)O)C(=O)NCCS(=O)(=O)O)cc%10Br)c9C)c8C)nn7)CC6)(CNCCNC4)CNCCNC5)CC3)nn2)c1C.[64Cu+2] [[^64Cu]Cu-17]
intact radioligand after incubation in human serum [3]: 86% | contrast of PD-L1 positive tumor to PD-L1 negative tumor ([4]; 24–25 h p.i.): 109% | excretion pattern / clearance route in PET ([4]; mice): rather renal than hepatobiliary clearance | SUVmax PC3 PD-L1 tumor ([4]; 1-2 hour p.i., mice): 0.49 ± 0.11 | SUVmax PC3 mock tumor ([4]; 1-2 hour p.i., mice): 0.31 | SUVmax kidney ([4]; 1-2 hour p.i., mice): 1.32 ± 0.47 | SUVmax liver ([4]; 1-2 hour p.i., mice): 17.0 ± 1.48 | SUVmax PC3 PD-L1 tumor [4, 10]: 0.49 | SUVmax kidney [4, 10]: 1.32 | SUVmax liver [4, 10]: 17.03 | SUVmax PC3 PD-L1 tumor ([4]; 4-5 hour p.i., mice): 0.81 | SUVmax PC3 mock tumor ([4]; 4-5 hour p.i., mice): 0.50 | SUVmax kidney ([4]; 4-5 hour p.i., mice): 2.18 ± 0.80 | SUVmax liver ([4]; 4-5 hour p.i., mice): 14.4 ± 1.26 | SUVmax kidney [4, 11]: 2.18 | SUVmax liver [4, 11]: 14.35 | SUVmax PC3 PD-L1 tumor ([4]; 24-25 hour p.i., mice): 2.47 ± 1.04 | SUVmax PC3 mock tumor ([4]; 24-25 hour p.i., mice): 1.18 | SUVmax kidney ([4]; 24-25 hour p.i., mice): 2.40 ± 0.60 | SUVmax liver ([4]; 24-25 hour p.i., mice): 8.62 ± 0.84 | SUVmax PC3 PD-L1 tumor [4, 12]: 2.47 | SUVmax kidney [4, 12]: 2.40 | SUVmax liver [4, 12]: 8.62
